Earlier results as cited in patent US8133908B2, “Heteroaryl derivatives of N-{[(1S,4S,6S)-3-(2-pyridinylcarbonyl)-3-azabicyclo[4.1.0]hept-4-yl]methyl}-2-amine” (Glaxo Group Limited, priority 2008, dated 2012).
No end group written: not given here.

Key:
[1] = test system: orexin receptors; conditions: rats, central administration at the onset of the normal sleep period
[2] = test system: orexin-A receptor(s); conditions: central administration, freely-feeding rats, 4 hour time period
[3] = test system: orexin receptor; conditions: rats

Molecule | arousal [1] | increase of food intake over control rats receiving vehicle [2] | hedonic eating [3] | high-fat pellet self-administration [3]
orexin-A: ligand for the orexin-1 receptor; an agonist of the orexin receptors (QPLPDCCRQKTCSCRLYELLHGAGNHAAGILTL; ends and bridges not checked; cysteine pairing not given here; UniProt O43612 34-66, looked up) | dose-related increase in arousal | approximately four-fold | – | –
Cc1nc2ccc(NC(=O)Nc3ccnc4cccnc34)cc2o1 [SB334867] | – | – | potently reduced | attenuated
